Results on 49 molecules are retold here after PubChem BioAssay AID624344 (Sanford-Burnham Center for Chemical Genomics, 2012).

Active and inactive are the calls of the source. No rule for the calls is given here. Peptide text beside a SMILES is read from it. * marks the point of attachment. CH2Cl = ClC*

The subject of one assay is Cytotoxicity. In words: NFkB reporter suppression in cystic fibrosis bronchial cells – cell-based, uHTS hits, panel, cytotoxicity readout, dose response (AID 624344). To be noted: CF bronchial epithelial cells, mean of runs.
Test in assay [1]: as above
To be noted: CF bronchial epithelial cells, PAF-induced NFkB reporter inhibition; with PAF, mean of runs.

For `COc1ccc(OC)c(N(CCN2C(=O)c3ccccc3C2=O)C(=O)CCl)c1`, the IC50 (commonly the concentration that inhibits the measured activity by half) in the assay on Cytotoxicity was 4.33 µM; in assay [1], 4.03 µM.

In the case of `NC(=O)c1c(Br)n(C2OC(CO)C(O)C2O)c2ncnc(N)c12` (stereo not drawn), the IC50 with Cytotoxicity is 3.07 µM; in assay [1] it was 2.03 µM.

As for `c1ccc2c(c1)Nc1ccncc1S2`, the IC50 in the assay on Cytotoxicity is 44.1 µM; in assay [1], 1.46 µM.

As for `O=[N+]([O-])c1cc([N+](=O)[O-])c2oc(-c3ccccc3)c(Br)c2c1O`, the IC50 is 4.56 µM with Cytotoxicity and 2.3 µM in assay [1].

Consider `CCOC(=O)c1sc(NC(=O)c2cccc(S(=O)(=O)N3CCc4ccccc43)c2)c(C#N)c1C`, for which the IC50 in the assay with Cytotoxicity is 6.88 µM; in assay [1], 1.02 µM.

As for `CCC(=O)c1ccc(O)c(CC=C(C)C)c1`, the IC50 in the assay with Cytotoxicity is 60.1 µM (inactive); in assay [1], 5.27 µM.

For the molecule `CC1CCc2sc3ncnc(N4CCOCC4)c3c2C1` (stereo not drawn), the half-maximal inhibitory concentration (IC50) in the assay on Cytotoxicity was 7.61 µM; in assay [1] it was 5.9 µM.

Regarding `C[C@H]1C[C@@H](C)C(=O)[C@@H]([C@H](O)CC2CC(=O)NC(=O)C2)C1`, the IC50 in the assay with Cytotoxicity was 8.86 µM; in assay [1], 0.37 µM.

Take `O=C(c1nnsc1S(=O)c1ccc(Cl)cc1)N1CCOCC1` (stereo not drawn): the IC50 is 10.7 µM in the assay with Cytotoxicity and 1.87 µM in assay [1].

Regarding `COc1cccc(-c2ccc3ncnc(NCc4cccs4)c3c2)c1`, the IC50 with Cytotoxicity was 13.6 µM; in assay [1] it was 2.91 µM.

With `Cc1nc([N+](=O)[O-])c(Sc2nc3ccccc3n2C)n1Cc1ccccc1`, the IC50 is 13 µM in the assay on Cytotoxicity and 4.05 µM in assay [1].

`Fc1ccc(Nc2ccnc(Nc3ccc(F)cc3)n2)cc1`: the IC50 with Cytotoxicity was 14 µM; in assay [1], 7.91 µM.

With `COc1ccc(/C=N/NC(=O)c2[nH]c3ccc(Br)cc3c2-c2ccccc2)cc1`, the half-maximal inhibitory concentration (IC50) is 27 µM in the assay on Cytotoxicity and 9.3 µM in assay [1].

Regarding `Cc1ccc(NC(=O)Nc2nnc(-c3ccncc3)s2)cc1C`, the IC50 in the assay on Cytotoxicity was 9.39 µM; in assay [1] it was 3.46 µM.

Take `Nc1nc(N)nc(-c2ccc(Cl)c(Cl)c2)n1`: the IC50 with Cytotoxicity was 20.3 µM; in assay [1] it was 2.78 µM.

Regarding `O=C(NC1CCCC(C(F)(F)F)C1)c1ccc([N+](=O)[O-])o1` (stereo not drawn), the half-maximal inhibitory concentration (IC50) in the assay with Cytotoxicity was 11 µM; in assay [1], 3.87 µM.

As for `Cc1c([N+](=O)[O-])c2ccc(O)cc2n1-c1ccccc1`, the half-maximal inhibitory concentration (IC50) was 26.2 µM with Cytotoxicity and 0.851 µM in assay [1].

Consider `CCCCN(c1ccccc1)c1ncnc(N)c1[N+](=O)[O-]`, for which the IC50 was > 79 µM (inactive) in the assay with Cytotoxicity and 1.08 µM in assay [1].

As to `Cc1ccc(-c2onc3ccc(C(=O)/C=C/N(C)C)cc23)cc1`, the half-inhibitory concentration (IC50) in the assay with Cytotoxicity was 22.9 µM; in assay [1] it was 9.39 µM.

With `CC(=O)NC(CC(C)C)C(=O)NC(Cc1ccccc1)C(=O)CCl` (stereo not drawn) (Ac-Leu-Phe-CH2Cl; configuration not given here), the 50% inhibitory concentration (IC50) was 17.6 µM in the assay with Cytotoxicity and 2.83 µM in assay [1].

For `Cc1cccc(NS(=O)(=O)c2ccc(-c3cnc(C4CC4)o3)cc2)c1C`, the figures for the IC50 (in the assay with Cytotoxicity; in assay [1]) were 56.2 µM (inactive) and 6.37 µM, respectively.

Regarding `Oc1ccc(Br)cc1-c1nc2cnccn2c1NC1CCCC1`, the half-maximal inhibitory concentration (IC50) in the assay on Cytotoxicity is 14.5 µM; in assay [1], 3.04 µM.

As for `CC1(Cc2cccc(F)c2)C(=O)Nc2ccc(-c3cccnc3)cc21` (stereo not drawn), the IC50 in the assay with Cytotoxicity is 67.9 µM (inactive); in assay [1], 1.58 µM.

On to `O=C(Oc1cc2oc(=O)cc(-c3ccccc3)c2cc1Cl)C1CCCCC1`, for which the IC50 in the assay on Cytotoxicity is 30.6 µM; in assay [1] it was 2.22 µM.

As for `O=C(c1nnsc1S(=O)(=O)c1ccc(Cl)cc1)N1CCOCC1`, the IC50 in the assay on Cytotoxicity was 9.67 µM; in assay [1], 3.85 µM.

On to `Cc1ccc(S(=O)(=O)N2[C@@H](c3ccc(C(C)(C)C)cc3)C(C(=O)O)=CC[C@H]2c2ccc(C(C)C)cc2)cc1`, for which the IC50 with Cytotoxicity is 55.7 µM (inactive); in assay [1], 12.9 µM.

With `O=c1[nH]c(C2CCN(S(=O)(=O)c3ccc4c(c3)OCCO4)CC2)nc2c1nnn2Cc1c(F)cccc1Cl`, the half-inhibitory concentration (IC50) was 44.5 µM in the assay on Cytotoxicity and 5.74 µM in assay [1].

In the case of `c1cncc(-c2ccc3ncnc(NCc4ccc5c(c4)OCO5)c3c2)c1`, the 50% inhibitory concentration (IC50) is 6.65 µM in the assay on Cytotoxicity and 6.5 µM in assay [1].

With `CS(=O)(=O)Nc1cccc(-c2cc(NC=O)c3ncc(-c4ccc(F)cc4)n3c2)c1`, the IC50 is 8.66 µM in the assay with Cytotoxicity and 2.4 µM in assay [1].

Turning to `CS(=O)(=O)c1ncc(Cl)c(C(=O)Nc2ccc(OC(F)F)cc2)n1`, the 50% inhibitory concentration (IC50) was 3.58 µM with Cytotoxicity and 1.78 µM in assay [1].

Turning to `CC(C)Cc1nc2oc3c(NCC4CCCO4)ncnc3c2c2c1CCC2` (stereo not drawn), the concentration for half-maximal inhibition (IC50) with Cytotoxicity is 3.76 µM; in assay [1], 2.87 µM.

Consider `C[C@@H]1C[C@@H]([C@H](O)CC2CC(=O)NC(=O)C2)C(=O)[C@@H](C)C1`, for which the values for the IC50 (in the assay with Cytotoxicity; in assay [1]) were 11.6 µM and 0.46 µM, respectively.

As for `O=C(COC(=O)c1c2c(nc3ccccc13)CCN(Cc1ccccc1)C2)Nc1c(F)cccc1F`, the 50% inhibitory concentration (IC50) in the assay with Cytotoxicity is 2.64 µM; in assay [1], 3.28 µM.

Turning to `CCOC(=O)c1c(C)cc2c(CO)n[nH]c(=O)c2c1C`, the IC50 in the assay on Cytotoxicity was 62.8 µM (inactive); in assay [1] it was 6.83 µM.

As for `Cc1ccc(Cl)cc1-c1cc(C(=O)NCc2cc(C(F)(F)F)cc(C(F)(F)F)c2)[nH]n1`, the IC50 is 16.6 µM in the assay on Cytotoxicity and 8.92 µM in assay [1].

As for `CN(C)c1ccc(Nc2ncnc3ccc(Br)cc23)cc1`, the half-inhibitory concentration (IC50) with Cytotoxicity was 15.9 µM; in assay [1] it was 1.66 µM.

On to `Cc1c(C(=O)c2cccc3ccccc23)c2cccc3c2n1[C@H](CN1CCOCC1)CO3`, for which the results for the half-inhibitory concentration (IC50) (in the assay with Cytotoxicity; in assay [1]) were 16.3 µM and 7.9 µM, respectively.

Consider `CCCCCOC(=O)c1[nH]c2c(c1C)C(=O)CC(c1ccco1)C2` (stereo not drawn), for which the values for the IC50 (in the assay with Cytotoxicity; in assay [1]) were > 79 µM (inactive) and 10.8 µM, respectively.

`CCC(=O)Nc1nc(C)c(-c2csc(Nc3cccc(O)c3)n2)s1`: the IC50 in the assay on Cytotoxicity is > 79 µM (inactive); in assay [1], 3.06 µM.

Consider `N#CC(C#N)=C1SC(=Nc2ccccc2)C(=Nc2ccccc2)N1c1ccccc1`, for which the IC50 is 12.4 µM with Cytotoxicity and 8.12 µM in assay [1].

Consider `COc1ccc(OC)c(Nc2ncnc3ccc(Br)cc23)c1`, for which the half-maximal inhibitory concentration (IC50) in the assay with Cytotoxicity is 13.8 µM; in assay [1] it was 4.6 µM.

For `Cn1c(N2CCN(C(c3ccccc3)c3ccccc3)CC2)nc2c1c(=O)[nH]c(=O)n2C`, the IC50 in the assay on Cytotoxicity was 7.56 µM; in assay [1] it was 3.69 µM.

For `COc1cc(OC)cc(C(=O)N[C@H](C(=O)Nc2nc3ccccc3[nH]2)C(C)C)c1`, the IC50 in the assay with Cytotoxicity was 41.1 µM. Also, in assay [1], the IC50 result is “inactive”.

`NC(=O)c1sc2nccc(Nc3ccccc3)c2c1N`: the IC50 with Cytotoxicity was 40 µM; in assay [1], 0.374 µM.

`Cc1ccc(-c2cc(C(=O)N/N=C/c3c(C)nn(-c4ccccc4)c3C)[nH]n2)cc1`: the IC50 with Cytotoxicity was > 79 µM (inactive). The IC50 result in assay [1] was “inactive”.

As for `S=c1[nH]nc(-c2ccncc2)n1/N=C/C(Cl)=C\c1ccccc1`, the IC50 was 35 µM with Cytotoxicity and 1.06 µM in assay [1].

With `COc1cccc(-c2ccc3ncnc(NCc4cccc(C)c4)c3c2)c1`, the IC50 with Cytotoxicity was 13 µM; in assay [1], 5.66 µM.

As for `COC(=O)C1=C(C(=O)OC)[C@@H]2N(Cc3ccccc3)c3ccccc3[C@@]23C[C@@H](C(=O)OC)N(C(=O)c2ccc(Br)cc2)C3=N1`, the half-maximal inhibitory concentration (IC50) in the assay on Cytotoxicity is 28.5 µM; in assay [1], 5.67 µM.

As to `N#Cc1c(Br)n(C2OC(CO)C(O)C2O)c2ncnc(N)c12` (stereo not drawn), the half-inhibitory concentration (IC50) with Cytotoxicity is 3.58 µM; in assay [1] it was 0.444 µM.
